The numbers were not newly measured in patent EP4015634A1, “SIRNA AND COMPOSITIONS FOR PROPHYLACTIC AND THERAPEUTIC TREATMENT OF VIRUS DISEASES” (SYLENTIS, S.A.U., priority 2020, dated 2022), which cites them from elsewhere.

Each structure is given as a SMILES string. *1 amine or outer side, *2 acyl side, *3 side chain or, on linkers, in order; H or OH if unused. Where a SMILES comes first, the peptide text is derived from it. Bridges are numbered along the chain shown (N, C = ends). [ ]: non-standard residue; d: D form. The star is where a group is joined. X1 = CC[C@H](C)[C@@H](N[*:1])[C@@H](O)CC(=O)O[C@H](C(=O)[C@H](C)C(=O)[*:2])C(C)C; NMeY = CN[C@@H](Cc1ccc(O)cc1)C(=O)O; dNMeL = CN[C@H](CC(C)C)C(=O)O; Pyruvoyl = CC(=O)C(=O)*

For one data set, the system named is SARS-CoV-2. The note with it: in vitro studies.
Another data set concerns patients with COVID-19. The note with it: phase I.

On to `CC[C@H](C)[C@H]1NC(=O)[C@@H](NC(=O)[C@@H](CC(C)C)N(C)C(=O)[C@@H]2CCCN2C(=O)C(C)=O)[C@@H](C)OC(=O)[C@H](Cc2ccc(OC)cc2)N(C)C(=O)[C@@H]2CCCN2C(=O)[C@H](CC(C)C)NC(=O)[C@@H](C)C(=O)[C@H](C(C)C)OC(=O)C[C@@H]1O` [plitidepsin] (Pyruvoyl-P[dNMeL]T[X1]LP[NMeY](Me); ester 3-C), for which the “SARS-CoV-2 viral load in vitro” value in the data set with SARS-CoV-2 is “reduced SARS-CoV-2 viral load at nanomolar concentrations”. For the same compound, the primary safety endpoint entry in the data set on patients with COVID-19 (patients with COVID-19 who required hospitalization) is “met the primary safety endpoint”. Besides, the “preliminary secondary endpoints of efficacy” value in the data set on patients with COVID-19 (treated patients) was “substantial reduction in viral load and the C-reactive protein”.
